This passage reports MIC results from patent EP0428132A1, “Pradimicin derivatives” (Bristol-Myers Squibb Company, priority 1989, dated 1991).

Converted amounts (≈) assume the structure as drawn.

Holding throughout (assay): In vitro antifungal activity, serial agar dilution method (Table 1a)
What all share (format): cell-based
For orientation: Agar dilution tests growth on a series of plates holding different concentrations.

Assay [1] deals with Microsporum gypseum WW1107. The conditions noted are these: Nannizzia gypsea, YM agar (pH 7.0, Difco), 30°C for 2 days (yeast) or 4 days (filamentous fungi), read-out: MICs, Microsporum gypseum WW1107. On the procedure: (§1) The inoculum size was adjusted to 10⁶ cells/ml, and a volume of approximately 0.003 ml of fungal suspension was applied to the surface of the antibiotic containing agar plates with a multiinoculator. After incubation, the lowest concentration of antibiotic causing virtually complete inhibition of fungal growth was determined as the minimum inhibitory concentration (MIC).

Another assay concerns Candida albicans A25578. To be noted: A25578, YM agar (pH 7.0, Difco), 30°C for 2 days (yeast) or 4 days (filamentous fungi), read-out: MICs, Candida albicans A25578. The procedure:
as §1

In the next assay the test system is Candida albicans A9540. To be noted: A9540, YM agar (pH 7.0, Difco), 30°C for 2 days (yeast) or 4 days (filamentous fungi), read-out: MICs, Candida albicans A9540. The procedure: as §1
Assay [2] relates to Cryptococcus neoformans A15053. To be noted: A15053, YM agar (pH 7.0, Difco), 30°C for 2 days (yeast) or 4 days (filamentous fungi), read-out: MICs, Cryptococcus neoformans A15053. On the procedure:
as §1

In assay [3] the test system is Candida pseudotropicalis A25802. The conditions noted are these: Kluyveromyces marxianus, YM agar (pH 7.0, Difco), 30°C for 2 days (yeast) or 4 days (filamentous fungi), read-out: MICs, Candida pseudotropicalis A25802. The procedure: as §1
Assay [4] deals with Saccharomyces cerevisiae A25803. The conditions noted are these: YM agar (pH 7.0, Difco), 30°C for 2 days (yeast) or 4 days (filamentous fungi), read-out: MICs, Saccharomyces cerevisiae A25803. On the procedure: as §1
The subject of assay [5] is Microsporum canis WW10218. The conditions noted are these: WW10218, pH 7, read-out: MICs, Microsporum canis WW10218. The procedure: as §1
Assay [6] concerns Trichophyton mentagrophytes A26771. To be noted: A26771, YM agar (pH 7.0, Difco), 30°C for 2 days (yeast) or 4 days (filamentous fungi), read-out: MICs, Trichophyton mentagrophytes A26771. On the procedure: as §1
The test system of assay [7] is Trichophyton rubrum A26761. The conditions noted are these: A26761, pH 7, read-out: MICs, Trichophyton rubrum A26761. The procedure:
as §1

In assay [8] the test system is Candida tropicalis A25809. To be noted: YM agar (pH 7.0, Difco), 30°C for 2 days (yeast) or 4 days (filamentous fungi), read-out: MICs, Candida tropicalis A25809. On the procedure: as §1
The subject of assay [9] is Candida tropicalis A25812. To be noted: A25812, YM agar (pH 7.0, Difco), 30°C for 2 days (yeast) or 4 days (filamentous fungi), read-out: MICs, Candida tropicalis A25812. The procedure:
as §1

The subject of assay [10] is Candida paratropicalis A25825. To be noted: YM agar (pH 7.0, Difco); 30°C for 2 days (yeast) or 4 days (filamentous fungi); read-out: MICs, Candida paratropicalis A25825. The procedure: as §1

Consider `COc1cc(O)c2c(c1)C(=O)c1c(cc3c(c1O)-c1c(cc(C)c(C(=O)N[C@H](C)C(=O)O)c1O)[C@H](O[C@@H]1O[C@H](C)[C@H](N(C)C(=O)NS(=O)(=O)c4ccc(C)cc4)[C@H](O)[C@H]1O)[C@H]3O)C2=O` [Ex. 19, N-(p-toluenesulfonylcarbamyl) pradimicin B], for which the MIC in assay [1] is 50 mg/L (≈ 55.2 µM); with Candida albicans A25578, 12.5 mg/L (≈ 13.8 µM); in the assay on Candida albicans A9540, 12.5 mg/L (≈ 13.8 µM); in assay [2] it was 6.3 mg/L (≈ 6.95 µM); in assay [3], 3.2 mg/L (≈ 3.53 µM); in [4], 3.2 mg/L (≈ 3.53 µM). Also, the MIC in assay [5] turned out to be 12.5 mg/L (≈ 13.8 µM); in [6], 50 mg/L (≈ 55.2 µM); in [7], 50 mg/L (≈ 55.2 µM); in assay [8], 6.3 mg/L (≈ 6.95 µM); in [9], 12.5 mg/L (≈ 13.8 µM); in [10] it was 25 mg/L (≈ 27.6 µM).
In the case of `COc1cc(O)c2c(c1)C(=O)c1c(cc3c(c1O)-c1c(cc(C)c(C(=O)N[C@H](C)C(=O)O)c1O)[C@H](O[C@@H]1O[C@H](C)[C@H](N(C)C(N)=O)[C@H](O)[C@H]1O)[C@H]3O)C2=O` [Ex. 17, N-carbamyl pradimicin B], the MIC in assay [1] amounted to 25 mg/L (≈ 33.3 µM); in the assay with Candida albicans A25578, 3.2 mg/L (≈ 4.26 µM); with Candida albicans A9540 it was 6.3 mg/L (≈ 8.38 µM); in assay [2] it was 6.3 mg/L (≈ 8.38 µM); in assay [3], 1.6 mg/L (≈ 2.13 µM); in [4] it was 1.6 mg/L (≈ 2.13 µM). Besides, the MIC in assay [5] amounted to 25 mg/L (≈ 33.3 µM); in assay [6] it was 25 mg/L (≈ 33.3 µM); in assay [7], 25 mg/L (≈ 33.3 µM); in assay [8], 1.6 mg/L (≈ 2.13 µM); in assay [9], 6.3 mg/L (≈ 8.38 µM); in assay [10], 6.3 mg/L (≈ 8.38 µM).
